In ChEMBL document CHEMBL5620367, “Discovery of new tetrahydroisoquinolines as potent and selective LSD1 inhibitors for the treatment of MLL-rearranged leukemia” (Eur J Med Chem, 2023) one finds Activity data, which are given here for one compound.

In this experiment the test system is MV4-11. Briefly: Induction of apoptosis in human MV4-11 cells assessed as necrotic cells at 30 uM incubated for 3 days by Annexin V staining based flow cytometry (reference value: 2.45 %). The format is functional. To be noted: time 3 day. For orientation: In flow cytometry, cells or beads pass a laser one at a time.

As for `O=C(O)C(F)(F)F.O=[N+]([O-])c1ccc(C2NCCc3cc(O)c(O)cc32)cc1` (stereo unspecified), the Activity is given as 6.36%.
